Reference: patent US5140025A, “Thienotricylene for the treatment of bronchial diseases” (BYK Gulden Lomberg Chemische Fabrik GmbH, priority 1987, dated 1992)
Where two headings read alike, the source gives them in different places.

Assays:
[1] = biological target: T1, M2 receptor (cardiac) (Rattus norvegicus, UniProt P10980); experiment: Receptor affinity, electrically stimulated left atrium of the rat; conditions: agonist carbachol, Schild slope normalised to 1.00, read-out: pA2 ± SEM, M2 receptor (cardiac) (converted)
T1 construct: isolated, left atria of rats (male 250-350 g); from tissue; host or cells: rat left atrium (isolated, male rats 250-350 g)
T1 sequence (P10980 1-466): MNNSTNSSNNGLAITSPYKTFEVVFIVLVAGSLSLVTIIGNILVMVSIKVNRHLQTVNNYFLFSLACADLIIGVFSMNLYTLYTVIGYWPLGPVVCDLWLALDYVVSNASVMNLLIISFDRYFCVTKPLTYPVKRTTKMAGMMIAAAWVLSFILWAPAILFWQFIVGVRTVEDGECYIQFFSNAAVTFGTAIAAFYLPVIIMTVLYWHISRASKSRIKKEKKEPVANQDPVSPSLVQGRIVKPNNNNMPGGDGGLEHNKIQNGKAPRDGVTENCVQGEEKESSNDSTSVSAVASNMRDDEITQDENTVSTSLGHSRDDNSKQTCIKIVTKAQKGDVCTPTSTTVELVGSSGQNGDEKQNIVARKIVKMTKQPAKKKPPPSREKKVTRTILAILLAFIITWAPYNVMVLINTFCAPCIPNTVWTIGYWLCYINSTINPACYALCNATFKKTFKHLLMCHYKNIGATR
Excerpt: The affinity of (±)-4,9-dihydro-3-methyl-4-[(4-methyl-1-piperazinyl)-acetyl]-10H-thieno[3,4-b][1,5]benzodiazepin-10-one (telenzepine, compound 2 in Table 7) and its conformers [(+)-enantiomer=compound 1, (-)-enantiomer=compound 3] to muscarinic M1 (ganglionic type) and M2 (cardiac type) receptors was investigated by the following methods:
Electrically Stimulated Left Atrium of the Rat (Eltze et al., 1985, Europ. J. Pharmacol. 112, 211-224).
Isometric contractions (HSE force transducer, K-30; Watanabe Linear Corder Mark 5) of isolated, left atria of rats (male 250-350 g) were recorded in an organ bath (10 ml, Tyrode nutrient solution, 31° C., gassing with carbogen, initial tension of the organs 0.25 g) under electrical stimulation (HSE stimulator; hook-shaped Pt electrodes at the base of the bath and immersed, annular Pt electrodes 1 cm below the water surface of the bath; 7 V, 3 ms, 2 Hz). After an equilibration time of 30 minutes, cumulative dose/response curves of carbachol (10^-8 -10^-6 M, in the presence of the antagonist also up to 10^-5 or 10^-4 M) were recorded simultaneously on 4 organs in each case by the technique described by van Rossum (1963). The substance to be tested was added to the organ baths 20 minutes before application of the carbachol. The pauses between the individual dose/response curves were 30-45 minutes.
The Tyrode nutrient solution used had the following composition (mM): NaCl 130, KCl 2.0, CaCl2 ·2H2 O 1.8, MgCl2 ·6H2 O 0.98, NaHCO3 12.0, NaH2 PO4 0.42 and glucose monohydrate 5.6. pA2 values (-log of the molar dissociation constants of the competitive antagonist-receptor complex) were determined by linear regression using the Schild plot: pA2 =-log [B/(x-1)], (Arunlakshana and Schild, 1959).
Table 7 below gives pA2 values of the substances, for which the slope of the regression lines for theoretically competitive antagonism have been normalised to 1.00 (Tallarida et al., 1979).

[2] = tested on: acetylcholine-induced bronchospasm; experiment: Acetylcholine-induced bronchospasm in anaesthetised, spontaneously breathing guinea pigs, intravenous administration; assay type: in vivo, guinea pig (Pirbright White); conditions: for Mean bronchospasmolytic activity, percentage increase of Vmaxe vs control spasm / Mean bronchospasmolytic activity, percentage increase of tidal volume (TV) vs control spasm: 0-60 min; for Mean bronchospasmolytic activity, percentage increase of Vmaxe vs control spasm / Mean bronchospasmolytic activity, percentage increase of tidal volume (TV) vs control spasm / Bronchospasmolytic activity, percentage increase of Vmaxe vs control spasm / Bronchospasmolytic activity, percentage increase of tidal volume (TV) vs control spasm: x±SEM, N=10; for ED50: Cavia porcellus, iv, 1 h, mean activity 0-60 min; for Bronchospasmolytic activity, percentage increase of Vmaxe vs control spasm / Bronchospasmolytic activity, percentage increase of tidal volume (TV) vs control spasm: at 60 min
Excerpt: Effect of Intravenously Administered Telenzepine on Acetylchline-Induced Bronchospasms in Anaesthetised, Spontaneously Breathing Guinea Pigs
Method for simultaneously recording pharmacodynamic or toxic effects on interior sensitive receptors and the respiration of guinea pigs (U. Kilian, E. Muller, E. Ch. Dittmann and J. Hamacher, Arzneim.-Forsch. 28, 1699-1708, 1978).
Pirbright White, Interfauna (Tuttlingen), 350-450 g, male.
Ethylurethane 1.2 g/kg i.p. as 12.5% aqueous solution.
Pneumotachogram: Maximum flow velocities of the respiratory air during expiration (Vmaxe, "peak flow"), tidal volume (TV).
Acetylcholine as spasmogen, 0.2-0.3 μmol/kg i.v., dissolved in 0.9% NaCl.
-10 min control spasm, 0 min administration of substance, +2, +10, +20, +30, +60 min test spasms.
Determination of the effect of telenzepine on the parameters (mean and standard error of mean, n=10) and calculation of the bronchospasmolytic activity from this as percentage inhibition of the acetylcholine-induced decrease of Vmaxe and TV by means of time/effect curves. Computation of a dose/response curve of the mean bronchospasmolytic activity during the observation time (0-60 min) from the areas under the time/effect curves and reading of 1 h ED50 values. Determination of a dose/response curve of the bronchospasmolytic activity at time 60 min and reading ED50 values.

Cc1scc2c1N(C(=O)CN1CCN(C)CC1)c1ccccc1NC2=O (racemic) [(±)-telenzepine, 4,9-dihydro-3-methyl-4-[(4-methyl-1-piperazinyl)-acetyl]-10H-thieno[3,4-b][1,5]benzodiazepin-10-one]
Kb [1]: 47.9 nM | Mean bronchospasmolytic activity, percentage increase of Vmaxe vs control spasm ([2]; 0.03 μmol/kg i.v.): 7 ± 3% | Mean bronchospasmolytic activity, percentage increase of tidal volume (TV) vs control spasm ([2]; 0.03 μmol/kg i.v.): 7 ± 3% | Mean bronchospasmolytic activity, percentage increase of Vmaxe vs control spasm ([2]; 0.05 μmol/kg i.v.): 22 ± 3% | Mean bronchospasmolytic activity, percentage increase of tidal volume (TV) vs control spasm ([2]; 0.05 μmol/kg i.v.): 26 ± 4% | Mean bronchospasmolytic activity, percentage increase of Vmaxe vs control spasm ([2]; 0.1 μmol/kg i.v.): 61 ± 8% | Mean bronchospasmolytic activity, percentage increase of tidal volume (TV) vs control spasm ([2]; 0.1 μmol/kg i.v.): 68 ± 9% | Mean bronchospasmolytic activity, percentage increase of Vmaxe vs control spasm ([2]; 1 μmol/kg i.v.): 81 ± 4% | Mean bronchospasmolytic activity, percentage increase of tidal volume (TV) vs control spasm ([2]; 1 μmol/kg i.v.): 84 ± 4% | Mean bronchospasmolytic activity, percentage increase of Vmaxe vs control spasm ([2]; 5 μmol/kg i.v.): 75 ± 3% | Mean bronchospasmolytic activity, percentage increase of tidal volume (TV) vs control spasm ([2]; 5 μmol/kg i.v.): 86 ± 2% | ED50 ([2]; read-out: ED50 of mean bronchospasmolytic activity, TV): 0.07 µmol/kg | ED50 ([2]; read-out: ED50 of mean bronchospasmolytic activity, Vmaxe): 0.08 µmol/kg | Bronchospasmolytic activity, percentage increase of Vmaxe vs control spasm ([2]; 0.03 μmol/kg i.v.): 11 ± 4% | Bronchospasmolytic activity, percentage increase of tidal volume (TV) vs control spasm ([2]; 0.03 μmol/kg i.v.): 12 ± 6% | Bronchospasmolytic activity, percentage increase of Vmaxe vs control spasm ([2]; 0.05 μmol/kg i.v.): 25 ± 3% | Bronchospasmolytic activity, percentage increase of tidal volume (TV) vs control spasm ([2]; 0.05 μmol/kg i.v.): 32 ± 5% | Bronchospasmolytic activity, percentage increase of Vmaxe vs control spasm ([2]; 0.1 μmol/kg i.v.): 70 ± 9% | Bronchospasmolytic activity, percentage increase of tidal volume (TV) vs control spasm ([2]; 0.1 μmol/kg i.v.): 78 ± 11% | Bronchospasmolytic activity, percentage increase of Vmaxe vs control spasm ([2]; 1 μmol/kg i.v.): 82 ± 5% | Bronchospasmolytic activity, percentage increase of tidal volume (TV) vs control spasm ([2]; 1 μmol/kg i.v.): 85 ± 5% | Bronchospasmolytic activity, percentage increase of Vmaxe vs control spasm ([2]; 5 μmol/kg i.v.): 80 ± 4% | Bronchospasmolytic activity, percentage increase of tidal volume (TV) vs control spasm ([2]; 5 μmol/kg i.v.): 91 ± 3% | dose range of dose- and time-dependent inhibition of acetylcholine-induced bronchospasm ([2]; i.v.): 0.03-1 μmol/kg i.v. | persistence of maximum effect ([2]; i.v., observation period): ≥ 1 h
